Format in all cases: functional
Test [1] concerns Felis catus. The experiment in a line: Compound was evaluated for the biological activity (pressure) in anesthetized cats at a dose of 10 ug/kg.
Test [2] relates to Felis catus. The experiment in a line: Compound was evaluated for the biological activity (pressure) in anesthetized cats at a dose of 20 ug/kg.
In test [3] the test system is Felis catus. The experiment in a line: Compound was evaluated for the biological activity (pressure) in anesthetized cats at a dose of 40 ug/kg.

In the case of `NC1CCCc2c(ccc(O)c2O)C1` (stereo not drawn), the Pressure in the test on Felis catus [1] is recorded as 15 mmHg; with Felis catus [2], 38 mmHg; with Felis catus [3] it was 70 mmHg.
